Earlier results on one compound are cited in US10391078B2, “Methods for the treatment of mast cell related disorders with mast cell stabilizers” (Respivant Sciences GmbH, priority 2015, dated 2019).

Read-outs that look alike come from different tables or passages of the source.

Regarding `O=C(O)c1cc(=O)c2c(OCC(O)COc3cccc4oc(C(=O)O)cc(=O)c34)cccc2o1` [cromolyn sodium], the oral bioavailability result is reported as “less than 1%”. In addition, the oral bioavailability entry (listed as cromolyn) is on record as “about 1%”.
